Test results reported in patent EP0041795A2, “Injectable composition of rapamycin” (AYERST, MCKENNA AND HARRISON INC., priority 1980, dated 1981).

Assay: Solubility of rapamycin
Format: physicochemical

solubility in aqueous solutions (aqueous solutions): virtually insoluble
solubility in surfactants (most surfactants, including the nonionic surfactants): insoluble
solubility in polyoxyethylated glycerin hydroxy fatty acids (rapamycin per se, polyoxyethylated glycerin hydroxy fatty acids): does not readily go into solution
SMILES: CO[C@H]1C[C@@H]2CC[C@@H](C)[C@@](O)(O2)C(=O)C(=O)N2CCCC[C@H]2C(=O)O[C@H]([C@H](C)C[C@@H]2CC[C@@H](O)[C@H](OC)C2)CC(=O)[C@H](C)/C=C(\C)[C@@H](O)[C@@H](OC)C(=O)[C@H](C)C[C@H](C)/C=C/C=C/C=C/1C [Rapamycin]
